Patent publication US20260199500A1, “Camptothecin Derivative, Conjugate Thereof, Preparation Method Therefor and Medical Use Thereof” (priority 2023, published 2026)
Read-outs that look alike come from different tables or passages of the source.

How the values were obtained:
[1] = test system: PANC-1 (Pancreatic) cells; experiment: Inhibition of PANC-1 cells by compounds; type: cell-based; conditions: PY-X (DXD) set to 1
Method: (§1) On the day of the experiment, the cells were digested with 0.25% trypsin (Gibco, 25200-072), filtered through a 40 μm sieve, diluted with the corresponding medium to a cell density of 1×10^4 cells/mL, and inoculated into a 96-well white cell culture plate (Beyotime, FCP968), with 100 μL of cells added per well. The culture plate was placed in a 37° C. incubator (Thermo 311) containing 5% C02 and incubated for 24 hours. On the second day, the samples to be tested were prepared as a stock solution at a final concentration of 1M in DMSO (Sigma, D1650), then diluted with the corresponding medium to a final concentration of 200 nM, and subjected to four-fold serial dilutions, resulting in a total of 9 concentrations. 100 μL of the diluted sample was added to each well of the 96-well plate. The plate was placed in a 37° C. incubator containing 5% CO2 and incubated for 144 hours. The cell culture plate was then removed, and 100 μL of the cell viability assay reagent (CellTiter-Glo® Luminescent Cell Viability Assay, Promega, G7571) was added to each well. The reaction was carried out in the dark at room temperature for 5 minutes. Luminescence values were read using a microplate reader (TECAN SPARK), and data were processed using Graphpad Prism 7 software.

SW1573 (NSCLC) cells = experiment: Inhibition of SW1573 cells by compounds; type: cell-based; conditions: PY-X (DXD) set to 1
Method: as §1

H82 (SCLC) cells = experiment: Inhibition of H82 cells by compounds; type: cell-based; conditions: PY-X (DXD) set to 1
Method: as §1

H1437 (NSCLC) cells = experiment: Inhibition of H1437 cells by compounds; type: cell-based; conditions: PY-X (DXD) set to 1
Method: as §1

[2] = Log D of small molecules (1-octanol / phosphate buffer pH 2.5 and pH 7.4, LC-MS/MS); type: physicochemical
Method: (1) Preparation of 100 mM phosphate buffer (PB) solution at pH 2.5 and pH 7.4 respectively: • a. Preparation of a solution of 100 mM H3PO4 in water: 14.7 M H3PO4 was diluted with water to a concentration of 100 mM H3PO4, and the pH was measured to be approximately 1.8. • b. Preparation of 100 mM NaH2PO4: 5.999 g of NaH2PO4 was dissolved in 500 mL of water and the pH was measured to be approximately 4.5. • c. Preparation of 100 mM Na2HPO4: 7.098 g of Na2HPO4 was dissolved in water to a volume of 500 mL and the pH was measured to be approximately 9.4. • d. Preparation of 100 mM PB (pH 2.5): 15 mL of 100 mM H3PO4 was added to a 50 mL tube, and then pH was adjusted to 2.5±0.05 with 100 mM NaH2PO4. • d. Preparation of 100 mM PB (pH 7.4): 15 mL of 100 mM Na2HPO4 was added to a 50 mL tube, and then pH was adjusted to 7.4±0.05 with 100 mM NaH2PO4.
(2) Saturation of PBs (pH 2.5 and pH 7.4) with 1-octanol: 10 mL of 1-octanol was added to 100 mL of 100 mM PBs (pH 2.5 and pH 7.4), and the mixture was shaken vigorously, and then allowed to stand overnight at room temperature for later use.
(3) Saturation of 1-octanol with PBs (pH 2.5 and pH 7.4): 10 mL of 100 mM PBs (pH 2.5 and pH 7.4) was added to 100 mL of 1-octanol, and the mixture was shaken vigorously, and then allowed to stand overnight at room temperature for later use.
2.1) 2 μL of 10 mM DMSO stock solution of the test compound were dispensed into test tubes, in duplicate.
2.2) 149 μL of PB saturated with 1-octanol (pH 2.5 and 7.4) were added to the tubes.
2.3) 149 μL of PB (pH 2.5 and 7.4) saturated with 1-octanol were added to the corresponding tubes.
2.4) Each tube was vigorously mixed for 2 minutes, then shaken at 800 rpm for 1 hour at room temperature.
2.5) The tubes were centrifuged at 4000 rpm for 5 minutes at room temperature.
2.6) Appropriate volumes of the buffer phase and 1-octanol phase samples were aliquoted.
2.7) These samples were diluted and analyzed using LC-MS/MS without running a calibration curve.
2.8) Data analysis: The log D value of each compound was calculated using the following formula: f

HT-29 (Colon) cells = experiment: Inhibition of HT-29 cells by compounds; type: cell-based; conditions: PY-X (DXD) set to 1
Method: as §1

[3] = test system: MDA-MB-468 breast cancer cells; experiment: Inhibitory activity of compounds on MDA-MB-468 breast cancer cells (CellTiter-Glo); type: cell-based; conditions: for IC50 on 468 cells, ratio to DXD (retest): samples retested together, ratio of measured IC50 to DXD; for IC50 on 468 cells, ratio to DXD: IC50 of PY-X (DXD) set to 1, values are ratios of measured IC50 to DXD
Method: as §1
(§2) PY—Y is referenced in the document (WO2022170971A1); and PY-A is referenced in the document (WO2021148501A1).

H1650 (NSCLC) cells = experiment: Inhibition of H1650 cells by compounds; type: cell-based; conditions: PY-X (DXD) set to 1
Method: as §1

N87 gastric cancer cells = experiment: Inhibitory activity of compounds on N87 gastric cancer cells (CellTiter-Glo, 144 h); type: cell-based; conditions: for IC50 on N87 cells, ratio to DXD (retest): samples retested together, ratio of measured IC50 to DXD; for IC50 on N87 cells, ratio to DXD: IC50 of PY-X (DXD) set to 1, values are ratios of measured IC50 to DXD, 144 h
Method: as §1, §2

A549 (NSCLC) cells = experiment: Inhibition of A549 cells by compounds; type: cell-based; conditions: PY-X (DXD) set to 1
Method: as §1

Colo-205 (Colon) cells = experiment: Inhibition of Colo-205 cells by compounds; type: cell-based; conditions: PY-X (DXD) set to 1
Method: as §1

[4] = test system: SW1990 (Pancreatic) cells; experiment: Inhibition of SW1990 cells by compounds; type: cell-based; conditions: PY-X (DXD) set to 1
Method: as §1

DMS53 (SCLC) cells = experiment: Inhibition of DMS53 cells by compounds; type: cell-based; conditions: PY-X (DXD) set to 1
Method: as §1

H23 (NSCLC) cells = experiment: Inhibition of H23 cells by compounds; type: cell-based; conditions: PY-X (DXD) set to 1
Method: as §1

PA-1 (Ovarian) cells = experiment: Inhibition of PA-1 cells by compounds; type: cell-based; conditions: PY-X (DXD) set to 1
Method: as §1

FADU (HNSCC) cells = experiment: Inhibition of FADU cells by compounds; type: cell-based; conditions: PY-X (DXD) set to 1
Method: as §1

H358 (NSCLC) cells = experiment: Inhibition of H358 cells by compounds; type: cell-based; conditions: PY-X (DXD) set to 1
Method: as §1

OVCAR3 (Ovarian) cells = experiment: Inhibition of OVCAR3 cells by compounds; type: cell-based; conditions: PY-X (DXD) set to 1
Method: as §1

H1975 (NSCLC) cells = experiment: Inhibition of H1975 cells by compounds; type: cell-based; conditions: PY-X (DXD) set to 1
Method: as §1

[5] = US 20210169852 A; cited from earlier work

Compound | IC50 in PANC-1 cells, ratio to DXD [1] | IC50 in SW1573 cells, ratio to DXD (SW1573 (NSCLC) cells) | IC50 in H82 cells, ratio to DXD (H82 (SCLC) cells) | IC50 in H1437 cells, ratio to DXD (H1437 (NSCLC) cells) | IC50 in HT-29 cells, ratio to DXD (HT-29 (Colon) cells) | IC50 in H1650 cells, ratio to DXD (H1650 (NSCLC) cells) | IC50 in A549 cells, ratio to DXD (A549 (NSCLC) cells) | IC50 in Colo-205 cells, ratio to DXD (Colo-205 (Colon) cells) | IC50 in SW1990 cells, ratio to DXD [4] | IC50 in DMS53 cells, ratio to DXD (DMS53 (SCLC) cells) | other results
CC[C@@]1(O)C(=O)OCc2c1cc1n(c2=O)Cc2c-1nc1cc(F)c(C)c3c1c2[C@@H](NC(=O)OCCCCO)CC3 [PY-4Car2, 4-hydroxybutyl((1S,9S)-9-ethyl-5-fluoro-9-hydroxy-4-methyl-10,13-dioxo-2,3,9,10,13,15-hexahydro-1H,12H-benzo[de]pyrano[3′,4′:6,7]indolizino[1,2-b]quinolin-1-yl)carbamate] | 0.4865 | 0.4766 | 0.5803 | 0.9590 | 0.4854 | 0.7384 | 0.5433 | 0.4478 | 0.3573 |  | logD ([2]; 1-octanol / phosphate buffer pH 2.5, read-out: Log D2.5 (Oct/buff) Result): 2.44; logD ([2]; 1-octanol / phosphate buffer pH 7.4, read-out: Log D7.4 (Oct/buff) Result): 2.43; solubility in n-octanol compared with PY-4Car, PY-4Car3C and DXD ([2]; different pH values (2.5 and 7.4)): belier solubility in n-octanol; IC50 on 468 cells, ratio to DXD (retest) [3]: 0.8170; IC50 on N87 cells, ratio to DXD (retest) (N87 gastric cancer cells): 0.5046
CC[C@@]1(O)C(=O)OCc2c1cc1n(c2=O)Cc2c-1nc1cc(F)c(CO)c3c1c2CCC3 [PY-10, (S)-9-ethyl-5-fluoro-9-hydroxy-4-(hydroxymethyl)-1,2,3,9,12,15-hexahydro-10H,13H-benzo[de]pyrano[3′,4′:6,7]indolizino[1,2-b]quinolin-10,13-dione] | 0.0915 | 0.1540 | 0.1525 | 0.1209 | 0.0874 | 0.0456 | 0.0792 | 0.1546 | 0.2133 | 0.1968 | 
CC[C@@]1(O)C(=O)OCc2c1cc1n(c2=O)Cc2c-1nc1cc(F)c(CN)c3c1c2CCC3 [PY-16, (S)-4-(aminomethyl)-9-ethyl-5-fluoro-9-hydroxy-1,2,3,9,12,15-hexahydro-10H,13H-benzo[de]pyrano[3′,4′:6,7]indolizino[1,2-b]quinolin-10,13-dione] | 0.1325 | 0.2256 | 0.3391 | 0.2768 | 0.1933 | 0.1421 | 0.2053 | 0.3082 | 0.4346 | 0.5137 | 
CC[C@@]1(O)C(=O)OCc2c1cc1n(c2=O)Cc2c-1nc1cc(F)c(O)c3c1c2CCC3 [PY-13, (S)-9-ethyl-5-fluoro-4,9-dihydroxy-1,2,3,9,12,15-hexahydro-10H,13H-benzo[de]pyrano[3′,4:6,7]indolizino[1,2-b]quinolin-10,13-dione] | 0.0810 | 0.1570 | 0.1364 | 0.0969 | 0.1434 | 0.0415 | 0.0899 | 0.1643 | 0.1255 | 0.1624 | IC50 in H23 cells, ratio to DXD (H23 (NSCLC) cells): 0.0819; IC50 on 468 cells, ratio to DXD [3]: 0.0798; IC50 on N87 cells, ratio to DXD (N87 gastric cancer cells): 0.0852; IC50 in PA-1 cells, ratio to DXD (PA-1 (Ovarian) cells): 0.1600; IC50 in FADU cells, ratio to DXD (FADU (HNSCC) cells): 0.1648; IC50 in H358 cells, ratio to DXD (H358 (NSCLC) cells): 0.1062; IC50 in OVCAR3 cells, ratio to DXD (OVCAR3 (Ovarian) cells): 0.0560; IC50 in H1975 cells, ratio to DXD (H1975 (NSCLC) cells): 0.0426
CC[C@@]1(O)C(=O)OCc2c1cc1n(c2=O)Cc2c-1nc1cc(F)c(C)c3c1c2[C@@H](NC(=O)CO)CC3 [DXd] |  |  |  |  |  |  |  |  |  |  | times less active than exatecan [5]: 2-4
CC[C@@]1(O)C(=O)OCc2c1cc1n(c2=O)Cc2c-1nc1cc(F)c(C)c3c1c2[C@@H](NC(=O)OCCO)CC3 [PY-4Car, 2-hydroxyethyl((1S,9S)-9-ethyl-5-fluoro-9-hydroxy-4-methyl-10,13-dioxy-2,3,9,10,13,15-hexahydro-1H,12H-benzo[de]pyran[3′,4:6,7]indolizino[1,2-b]quinolin-1-yl)carbamate] | 0.4763 | 0.3187 | 0.4523 | 0.6526 | 0.3312 | 0.4491 | 0.4832 | 0.2923 | 0.4822 | 0.5151 | logD ([2]; pH 2.5): 2.1; logD ([2]; pH 7.4): 2.09; IC50 on 468 cells, ratio to DXD (retest) [3]: 0.5193; IC50 on N87 cells, ratio to DXD (retest) (N87 gastric cancer cells): 0.3112
exatecan mesylate [PY-E, reference compound] | 0.1086 | 0.3310 | 0.5103 | 0.2303 | 0.1376 | 0.1570 | 0.1645 | 0.2938 | 0.3581 |  | IC50 in H23 cells, ratio to DXD (H23 (NSCLC) cells): 0.1245; IC50 on 468 cells, ratio to DXD [3]: 0.3546; IC50 on N87 cells, ratio to DXD (N87 gastric cancer cells): 0.4782; IC50 in PA-1 cells, ratio to DXD (PA-1 (Ovarian) cells): 0.3572; IC50 in FADU cells, ratio to DXD (FADU (HNSCC) cells): 0.4464; IC50 in H358 cells, ratio to DXD (H358 (NSCLC) cells): 0.2694; IC50 in OVCAR3 cells, ratio to DXD (OVCAR3 (Ovarian) cells): 0.2269; IC50 in H1975 cells, ratio to DXD (H1975 (NSCLC) cells): 0.0963
